Source: paper PMC6630699, “Synthesis and Cytotoxicity Evaluation of DOTA-Conjugates of Ursolic Acid” (Molecules, 2019)
Entries after “also recorded” stand apart in the source; their conditions may differ.

Legend:
[1] = tested on: FaDu (pharynx squamous cell carcinoma); assay: SRB cytotoxicity assay, FaDu; assay type: cell-based, human; conditions: for EC50: Homo sapiens, FaDu, SRB assay, 72 h of treatment; for Selectivity index SI FaDu: SI = EC50 (NIH 3T3)/EC50 (FaDu)
Excerpt: (§1) Due to cytotoxicity evaluation, the prepared UA-DOTA conjugates were screened in rhodamine B assays employing a series of human tumor cell lines and non-malignant mouse fibroblasts (NIH 3T3).
(§2) The cell lines used are human cancer cell lines: A2780 (ovarian carcinoma), HT29 (colon adenocarcinoma), MCF-7 (breast adenocarcinoma), A375 (melanoma), FaDu (pharynx squamous cell carcinoma) and non-malignant mouse fibroblasts NIH 3T3; all cell lines were obtained from the Department of Oncology (Martin-Luther-University Halle-Wittenberg). Cultures were maintained as monolayers in RPMI 1640 medium with L-glutamine (Capricorn Scientific GmbH, Ebsdorfergrund, Germany) supplemented with 10% heat inactivated fetal bovine serum (Sigma-Aldrich Chemie GmbH, Steinheim, Germany) and penicillin/streptomycin (Capricorn Scientific GmbH, Ebsdorfergrund, Germany) at 37 °C in a humidified atmosphere with 5% CO2.
(§3) The cytotoxicity of the compounds was evaluated using the sulforhodamine-B (Kiton-Red S, ABCR) micro culture colorimetric assay. Cells were seeded into 96-well plates on day 0 at appropriate cell densities to prevent confluence of the cells during the period of experiment. After 24 h, the cells were treated with six different concentrations (1, 3, 7, 12, 20, and 30 µM) minimum. The final concentration of DMSO/DMF never exceeded 0.5%, which was non-toxic to the cells. After a 72-h treatment, the supernatant medium from the 96-well plates was discarded, the cells were fixed with 10% trichloroacetic acid (TCA) and allowed to rest at 4 °C. After 24 h fixation, the cells were washed in a strip washer and dyed with SRB solution (100 µL, 0.4%, in 1% acetic acid) for about 20 min. After dying, the plates were washed four times with 1% acetic acid to remove the excess of the dye and allowed to air-dry overnight. Tris base solution (200 µL, 10 mM) was added to each well and absorbance was measured at λ = 570 nm using a 96 well plate reader (Tecan Spectra, Crailsheim, Germany). The EC50 values were averaged from three independent experiments performed each in triplicate calculated from semi logarithmic dose response curves applying a non-linear 4P Hills-slope equation (GraphPad Prism5; variables top and bottom were set to 100 and 0, respectively).

[2] = tested on: MCF-7 (breast adenocarcinoma); assay: SRB cytotoxicity assay, MCF-7; assay type: cell-based, human; conditions: for EC50: Homo sapiens, MCF7, SRB assay, 72 h of treatment; for Selectivity index SI MCF-7: SI = EC50 (NIH 3T3)/EC50 (MCF-7)
Excerpt: as §1, §2, §3

[3] = tested on: HT29 (colon adenocarcinoma); assay: SRB cytotoxicity assay, HT29; assay type: cell-based, human; conditions: for EC50: Homo sapiens, HT-29, SRB assay, 72 h of treatment; for Selectivity index SI HT29: SI = EC50 (NIH 3T3)/EC50 (HT29)
Excerpt: as §1, §2, §3

[4] = tested on: A2780 (ovarian carcinoma); assay: SRB cytotoxicity assay, A2780; assay type: cell-based, human; conditions: for EC50: SRB assay, 72 h of treatment; for Selectivity index SI A2780: SI = EC50 (NIH 3T3)/EC50 (A2780)
Excerpt: as §1, §2, §3

[5] = tested on: A375 (melanoma); assay: SRB cytotoxicity assay, A375; assay type: cell-based, human; conditions: for EC50: Homo sapiens, A-375, SRB assay, 72 h of treatment; for Selectivity index SI A375: SI = EC50 (NIH 3T3)/EC50 (A375)
Excerpt: as §1, §2, §3

[6] = tested on: non-malignant mouse fibroblasts NIH 3T3; assay: SRB cytotoxicity assay, NIH 3T3; assay type: cell-based; conditions: NIH3T3, 72 h of treatment
Excerpt: as §1, §2, §3

[7] = tested on: human tumor cell lines; assay: SRB cytotoxicity assay, statements over the whole cell line panel; assay type: cell-based; conditions: summary over all tumor cell lines
Excerpt: as §1, §2, §3

[8] = tested on: A375 cells; assay: Cell cycle investigations (PI, flow cytometry); assay type: cell-based, human
Procedure: Approximately 2 × 10^5 cells (A375) were seeded in cell culture flasks (25 cm^2), and the cells were allowed to grow up for 24 h. After removing of the used medium, the substance loaded fresh medium was reloaded (or a blank fresh medium as a control). After 24 h or 48 h, respectively, only the adherent cells were harvested, centrifuged (1200 rpm, 4 °C), and washed twice with PBS ((w/w), 1 mL). The cells were counted and approximately 1 × 10^6 cells were fixed with ethanol (70%, 4 °C, 24 h). After centrifugation (4500 rpm, 4 °C) the cells were washed with PBS ((w/w), 1 mL) and centrifuged. The pellet was resuspended in 1 mL RNAse A containing PI buffer (100µL RNAse (100 mg/mL), 15 µL PI solution (1 mg/mL)) and after incubating for 30 min at room temperature in the dark, cells were analyzed using the Attune® FACS machine; collecting data from the BL-2A channel. Doublet cells were excluded from the measurements by plotting BL-2A against BL-2H. For each cell cycle distribution 20,000 events were collected in technical triplicates, each sample was measured in duplicates. Cell cycle distribution was calculated using ModFitLT™ (Verity Software House, Topsham, ME, USA).

[9] = tested on: A375 cells; assay: Annexin V-FITC/PI assay (flow cytometry); assay type: cell-based, human
Procedure: Approximately 2 × 10^5 cells (A375) were seeded in cell culture flasks (25 cm^2), and the cells were allowed to grow up for 24 h. After removing of the used medium, the substance loaded fresh medium was reloaded (or a blank fresh medium as a control). After 24 h and 48 h, the cells were harvested, centrifuged (1200 rpm, 4 °C), and washed twice with PBS (w/Ca^2+ and Mg^2+, 1 mL). The cells were counted and approximately 1∙10^6 cells were washed with Annexin V binding buffer (BioLegend®, San Diego, USA) and treated with propidium iodide solution (3 µL, 1 mg/mL) and Annexin V-FITC (5 µL, BioLegend®, San Diego, CA, USA) for 15 min in the dark at room temperature. After adding Annexin V binding buffer (400 µL) the suspension was analyzed using Attune® FACS machine. After gating for living cells, the data from detectors BL-1A and BL-3A were collected (20,000 events) in technical triplicates. The assay was performed in duplicates; cell distribution was calculated using Attune® Software (ThermoFisher Scientific, Braunschweig, Germany).

[10] = tested on: A375 cells; assay: AO/PI dye exclusion test (fluorescence microscopy); assay type: cell-based, human
Procedure: Morphological characteristics of cell death were analyzed employing an AO/PI assay using human cancer cell line A375. Approx. 2 × 10^5 cells were seeded in cell culture flasks (25 cm^2), and the cells were allowed to grow up for 24 h. After removing of the used medium, the substance loaded fresh medium was reloaded (or a blank new medium as a control). After 24 h and 48 h, the content of the flask was collected and centrifuged (1200 rpm, 4 °C), the pellet was gently suspended in phosphate-buffered saline (PBS (w/Ca^2+ and Mg^2+), 1 mL) and centrifuged again. The PBS was removed, and the pellet gently suspended in PBS (150 µL) again. The analysis of the cells was performed using a fluorescence microscope after having mixed the cell suspension (10 µL) with a solution of AO/PI (5 µg/mL, 10 µL).

SMILES	EC50 [1] [µM]	EC50 [2] [µM]	EC50 [3] [µM]	EC50 ([4]; Homo sapiens, A2780, 72 h) [µM]	EC50 [5] [µM]	EC50 [6] [µM]	EC50 [7] [µM]	Selectivity index SI FaDu [1]	Selectivity index SI MCF-7 [2]	Selectivity index SI HT29 [3]	Selectivity index SI A2780 [4]	Selectivity index SI A375 [5]	also measured
CC(=O)O[C@H]1CC[C@]2(C)[C@H]3CC=C4[C@@H]5[C@@H](C)[C@H](C)CC[C@]5(C(=O)NCCN5CCN(C(=O)CN6CCN(CC(=O)O)CCN(CC(=O)O)CCN(CC(=O)O)CC6)CC5)CC[C@@]4(C)[C@]3(C)CC[C@H]2C1(C)C [compound 15, 2,2’,2’’-[10-[2-[4-[2-(3β-Acetyloxy-urs-12-en-28-oylamino)ethyl]piperazin-1-yl]-2-oxoethyl]-1,4,7,10-tetraazacyclododecane-1,4,7-triyl]triacetic acid]	> 60	> 60	> 60	> 60	> 60	> 60	> 60	–	–	–	–	–	melting point: 206 to 210 °C (dec.)
CC(=O)O[C@H]1CC[C@@]2(C)C(CC[C@]3(C)C2CC=C2C4[C@@H](C)[C@H](C)CC[C@]4(C(=O)N4CCN(C(=O)CN5CCN(CC(=O)OC(C)(C)C)CCN(CC(=O)OC(C)(C)C)CCN(CC(=O)OC(C)(C)C)CC5)CC4)CC[C@]23C)C1(C)C (stereo partly drawn) [compound 22, Tri-tert-butyl 2,2’,2’’-[10-[2-[4-(3β-acetyloxy-urs-12-en-28-oyl)piperazin-1-yl]-2-oxoethyl]-1,4,7,10-tetraazacyclododecane-1,4,7-triyl]triacetate]	3.7 ± 0.6	4.4 ± 0.7	5.7 ± 0.5	1.7	1.5 ± 0.4	4.6 ± 1	–	1.24	1.05	0.81	2.42	3.07	cell cycle distribution versus control ([8]; A375, 3.0 µM, 48 h): G1/G0, G2/M, and S phase were drastically reduced; also recorded: an increased population of cells with reduced DNA content has been observed in the subG1 region; EC50 [4]: 1.9 ± 0.3 µM; density plots versus control ([9]; A375, 3.0 µM, 24 h): no significant differences in comparison to the control; annexin V-FITC-positive cells ([9]; A375, 3.0 µM, 48 h): 32.9%; apoptotic cells (R4) ([9]; A375, 3.0 µM, 48 h): 17.4%; vital cells (R3) ([9]; A375, 3.0 µM, 48 h, control 86.0%): 66.3%; fluorescence microscopic images versus control ([10]; A375, 3.0 µM, 24 h): no significant differences in comparison to the control; cell morphology in fluorescence microscopic images ([10]; A375, 3.0 µM, 48 h): ruptures of the plasma membrane
CC(=O)O[C@H]1CC[C@@]2(C)C(CC[C@]3(C)C2CC=C2C4[C@@H](C)[C@H](C)CC[C@]4(C(=O)NCCNC(=O)CN4CCN(CC(=O)OC(C)(C)C)CCN(CC(=O)OC(C)(C)C)CCN(CC(=O)OC(C)(C)C)CC4)CC[C@]23C)C1(C)C (stereo partly drawn) [compound 24, Tri-tert-butyl 2,2’,2’’-[10-[2-[2-(3β-acetyloxy-urs-12-en-28-oylamino)ethyl]amino-2-oxoethyl]-1,4,7,10-tetraazacyclododecane-1,4,7-triyl]triacetate]	2 ± 0.2	1.8 ± 0.1	2.3 ± 0.3	1.7 ± 0.1	2 ± 0.1	1.4 ± 0.1	< 2.5	0.70	0.78	0.61	0.82	0.70	cell cycle distribution versus control ([8]; A375, 4.0 µM, 24 h): decreased number of cells in G1/G0, G2/M, as well as in S phase; also recorded: a large population of cells has been shifted into the subG1 region; annexin V-FITC-positive cells ([9]; A375, 4.0 µM, 24 h): 63%; apoptotic cells (R4) ([9]; A375, 4.0 µM, 24 h): 51.9%; vital cells (R3) ([9]; A375, 4.0 µM, 24 h, control 86.1%): 36.7%; cell morphology in fluorescence microscopic images ([10]; A375, 4.0 µM, 24 h): vital cells (green staining) with some of them having ruptured cell membranes
